The subject of one data set is human B-ALL cell lines. Nature of the data set: Annexin-V/PI cell death of human B-ALL cell lines pre-conditioned with RPMI, SCM or ACM. The method, then:
Human B-ALL cell lines (Nalm6, REH,) were cultured for 24 hours in unconditioned medium (RPMI), stromal cell-conditioned medium (SCM), or adipocyte-conditioned medium (ACM) and then treated with anti-GAL-9 antibody (αGAL-9 Ab) or an IgG control antibody (IgG ctrl) for an additional 2 days with or without MTX. The percentage of apoptotic and dead cells on day 3 of culture was determined using Annexin-V/ PI staining followed by flow cytometric analysis.
Thus, additional experiments were performed to determine how adipocyte-conditioned medium (ACM)-exposed B-ALL cells responded to chemotherapy treatment. In obese patients, leukemia cells would be exposed to an adipocyte-rich microenvironment prior to chemotherapy administration. To mimic this scenario in vitro, human B-ALL cell lines were pre-treated for 24 hours with unconditioned medium (RPMI), stromal cell-conditioned medium (SCM), or ACM prior to the addition of methotrexate (MTX) for 2 days.

The test system of a further data set is mB-ALL cell cultures. Kind of data set: ACM-induced chemoresistance in mB-ALL cell cultures. Type of data set: cell-based, murine.
Data set [1] deals with murine BCR-ABL+ Arf-/- B-ALL (mB-ALL). The settings on record: for survival: once weekly from day 7, MTX 0.75 mg/kg, αGAL-9 Ab 1.5 mg/kg.
Description: Lean and obese mice were inoculated intravenously with murine Bcr-Abl+ Arf-/- B-ALL cells (mB-ALL). On day 7 post-inoculation, when GFP+ leukemic blasts were detected in the peripheral blood, treatment with DMSO (Vehicle, n=10), 0.75 mg/kg methotrexate (MTX, n=10), 1.5 mg/kg anti-galectin-9 antibody (αGAL-9 Ab, n=10), or (MTX + αGAL-9 Ab) a combined was initiated. Treatments were administered once weekly. Survival was monitored and significance was determined using the log-rank test with “A” representing a statistically significant difference between vehicle and MTX-treated mice, “B” between vehicle and anti-Gal-9 treated groups, and “C” between vehicle and MTX + anti-Gal-9 treated mice.
A murine BCR-ABL+ Arf-/- B-ALL (mB-ALL) model was used to test whether treatment with anti-GAL-9 antibody could be used as a therapy to treat obese mice with B-ALL. […] C57BL/6 mice were maintained on lean and high-fat diets as previously described and then challenged with mB-ALL. Treatment with vehicle, MTX, anti-GAL-9 antibody, or a combination of MTX and anti-GAL-9 antibody was initiated on day 7 after leukemia inoculation, when GFP+ B-ALL cells were detected in the peripheral blood.

Where two headings read alike, the source gives them in different places.

As to `CN(Cc1cnc2nc(N)nc(N)c2n1)c1ccc(C(=O)N[C@@H](CCC(=O)O)C(=O)O)cc1` [MTX, methotrexate], in the data set on human B-ALL cell lines (cultures pre-treated with ACM), the “decrease of MTX-induced cell death” value was 40-70%. For the same molecule, the “MTX-induced cell death, effect of pre-conditioning” value in the data set on human B-ALL cell lines (pre-conditioning with SCM) was “not impacted”. In the data set on mB-ALL cell cultures, the “chemoresistance induced by ACM” value was “induced chemoresistance”. In addition, the survival entry in data set [1] (lean mice) is “significantly extended the survival”. Further, in data set [1] (obese mice), the weight loss result is “loss substantial weight” and the survival result was “not significantly protected”.
With `COc1cccc2c1C(=O)c1c(O)c3c(c(O)c1C2=O)C[C@@](O)(C(=O)CO)C[C@@H]3O[C@H]1C[C@H](N)[C@H](O)[C@H](C)O1` [doxorubicin], in the data set on human B-ALL cell lines, the “resistance induced by exposure to ACM” value was “induced resistance”. Moreover, in the data set with mB-ALL cell cultures, the “chemoresistance induced by ACM” value is “induced chemoresistance”.
Take `CC[C@]1(O)C[C@H]2CN(CCc3c([nH]c4ccccc34)[C@@](C(=O)OC)(c3cc4c(cc3OC)N(C=O)[C@H]3[C@@](O)(C(=O)OC)[C@H](OC(C)=O)[C@]5(CC)C=CCN6CC[C@]43[C@@H]65)C2)C1` [vincristine]: the “resistance induced by exposure to ACM” value in the data set with human B-ALL cell lines is given as “induced resistance”.

For the origin of these results see US20230295564A1, “Galectin-9 Specific Binding Agents for Use in Treating Cancer” (Emory University, priority 2020, published 2023).
